Here are results for one molecule from ChEMBL document CHEMBL2417412, “Design, synthesis, and structure-activity relationships of dihydrofuran-2-one and dihydropyrrol-2-one derivatives as novel benzoxazin-3-one-based mineralocorticoid receptor antagonists” (Bioorg Med Chem, 2013).

The test system of assay [1] is HEK293. Kind of assay: Selectivity ratio of IC50 for human AR expressed in 293 cells to IC50 for human MR expressed in 293 cells. It counts as cell-based.
For assay [2], the system named is HEK293. Kind of assay: Selectivity ratio of IC50 for human PR expressed in 293 cells to IC50 for human MR expressed in 293 cells. It is filed as cell-based.

Where only a bound is given, the exact number is not on record here.

As to `Cc1cc(C2=C(c3ccc(F)cc3)C(=O)NC2C)cc2c1OCC(=O)N2` (configuration not stated), the Ratio IC50 in assay [1] and in assay [2] was more than 200 each time.
